ChEMBL document CHEMBL1137013, “Discovery of (2R)-2-(3-{3-[(4-Methoxyphenyl)carbonyl]-2-methyl-6-(trifluoromethoxy)-1H-indol-1-yl}phenoxy)butanoic acid (MK-0533): a novel selective peroxisome proliferator-activated receptor gamma modulator for the treatment of type 2 diabetes mellitus with a reduced potential to increase plasma …” (J Med Chem, 2009)
pEC50, pIC50: −log10 of the molar value.

Legend:
[1] = molecular target: T1, Peroxisome proliferator-activated receptor gamma (Homo sapiens, UniProt P37231)
T1 sequence (P37231 whole entry): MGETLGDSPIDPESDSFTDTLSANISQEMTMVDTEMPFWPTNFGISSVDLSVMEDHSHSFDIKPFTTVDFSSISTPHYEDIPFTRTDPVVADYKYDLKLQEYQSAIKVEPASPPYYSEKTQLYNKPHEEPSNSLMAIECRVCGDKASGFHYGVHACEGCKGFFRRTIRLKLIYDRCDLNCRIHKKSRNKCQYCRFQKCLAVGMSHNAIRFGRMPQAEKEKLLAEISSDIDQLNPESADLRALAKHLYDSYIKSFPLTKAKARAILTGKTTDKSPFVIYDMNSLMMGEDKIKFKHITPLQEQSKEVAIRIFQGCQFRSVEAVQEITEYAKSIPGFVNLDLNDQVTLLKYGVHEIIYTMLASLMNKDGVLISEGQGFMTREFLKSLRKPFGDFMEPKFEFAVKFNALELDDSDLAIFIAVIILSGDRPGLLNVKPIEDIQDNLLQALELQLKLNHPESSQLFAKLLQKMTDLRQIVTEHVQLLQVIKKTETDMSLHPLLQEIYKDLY
Description: Displacement of [3H2]nTZD3 from human recombinant GST-fused PPARgamma expressed in Escherichia coli by scintillation proximity assay

[2] = Plasma clearance in monkey; format: ADME, organism-based, Macaca mulatta; details: rhesus monkey
[3] = AUC in obese insulin-resistant Zucker fa/fa rat at 150 mg/kg, po once daily for 7 days; format: ADME, organism-based; set-up: dose 150 mg/kg, route oral; details: plasma
[4] = molecular target: T1, Peroxisome proliferator-activated receptor gamma; remark: listed apart in the source
Description: Agonist activity at human recombinant PPARgamma expressed in COS1 cells co-expressing GAL4 assessed as transcriptional activity after 48 hrs by luciferase reporter gene assay

[5] = Cmax in monkey; format: ADME, organism-based, Macaca mulatta; details: rhesus monkey, in vivo
[6] = Cmax in rat; format: ADME, organism-based; details: in vivo
[7] = Oral bioavailability in rat; format: ADME, organism-based; details: in vivo
[8] = AUC in obese insulin-resistant Zucker fa/fa rat at 30 mg/kg, po once daily for 7 days; format: ADME, organism-based; set-up: dose 30 mg/kg, route oral; details: plasma
[9] = AUC in obese insulin-resistant Zucker fa/fa rat at 3 mg/kg, po once daily for 7 days; format: ADME, organism-based; set-up: dose 3 mg/kg, route oral; details: plasma
[10] = AUC in Sprague-Dawley rat at 300 mg/kg dosed daily for 2 weeks; format: ADME, organism-based; set-up: dose 300 mg/kg; details: plasma
[11] = AUC in db/db mouse at 30 mg/kg, po administered once daily for 11 days; format: ADME, organism-based; set-up: dose 30 mg/kg, route oral; details: plasma
[12] = Oral bioavailability in dog; format: ADME, organism-based, Canis lupus familiaris; details: in vivo
[13] = tested on: Rattus norvegicus; test: Toxicity in obese insulin-resistant Zucker fa/fa rat assessed as increase in extracellular fluid volume at 3 to 150 mg/kg, po once daily for 7 days measured after 24 hrs by bioelectrical impedance analysis; format: organism-based; set-up: dose 3-150 mg/kg, route oral; details: in vivo
[14] = tested on: Mus musculus; test: Antihyperglycemic activity in db/db mouse assessed as plasma adiponectin level at 30 mg/kg, po administered once daily for 11 days by RIA; format: functional
[15] = tested on: Liver microsomes; test: Protein binding in human liver microsomes assessed per mg of protein; format: ADME, Microsome
[16] = Cmax in dog; format: ADME, organism-based, Canis lupus familiaris; details: in vivo
[17] = Terminal half life in rat; format: ADME, organism-based; details: in vivo, read-out: beta t1/2 (converted)
[18] = tested on: Rattus norvegicus; test: Toxicity in obese insulin-resistant Zucker fa/fa rat assessed as increase in heart weight volume at 3 to 150 mg/kg, po once daily for 7 days; format: organism-based; set-up: dose 3-150 mg/kg, route oral; details: in vivo, 168 h
[19] = tested on: Liver microsomes; test: Protein binding in rat liver microsomes assessed per mg of protein; format: ADME, Microsome
[20] = tested on: Rattus norvegicus; test: Toxicity in Sprague-Dawley rat assessed as brown adipose tissue weight at 300 mg/kg dosed daily for 2 weeks; format: organism-based; set-up: dose 300 mg/kg; details: in vivo, 336 h
[21] = tested on: Cricetinae; test: Agonist activity at hamster PPARalpha at 3000 nM; format: functional
[22] = Volume of distribution at steady state in monkey; format: ADME, organism-based, Macaca mulatta; details: rhesus monkey, in vivo; read-out: Vdss
[23] = AUC in obese insulin-resistant Zucker fa/fa rat at 100 mg/kg, po once daily for 7 days; format: ADME, organism-based; set-up: dose 100 mg/kg, route oral; details: plasma
[24] = molecular target: T2, Peroxisome proliferator-activated receptor alpha (Mus musculus, UniProt P23204); test: Agonist activity at mouse PPARalpha; format: functional; details: read-out: EC50
T2 sequence (P23204 whole entry): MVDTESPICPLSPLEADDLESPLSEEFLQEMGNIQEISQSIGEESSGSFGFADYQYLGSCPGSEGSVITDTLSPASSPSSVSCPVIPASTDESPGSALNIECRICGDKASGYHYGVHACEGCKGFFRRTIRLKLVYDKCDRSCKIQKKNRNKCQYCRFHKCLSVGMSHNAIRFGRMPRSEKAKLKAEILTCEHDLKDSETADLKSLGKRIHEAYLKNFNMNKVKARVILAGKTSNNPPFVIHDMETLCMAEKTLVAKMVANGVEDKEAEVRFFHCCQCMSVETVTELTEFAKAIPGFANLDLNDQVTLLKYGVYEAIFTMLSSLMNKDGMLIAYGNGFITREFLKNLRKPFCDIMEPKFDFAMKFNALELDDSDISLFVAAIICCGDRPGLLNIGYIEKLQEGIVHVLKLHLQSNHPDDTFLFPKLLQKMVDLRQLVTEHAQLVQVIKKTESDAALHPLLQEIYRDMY

[25] = Terminal half life in monkey; format: ADME, organism-based, Macaca mulatta; details: rhesus monkey, in vivo; read-out: beta t1/2 (converted)
[26] = molecular target: T3, Peroxisome proliferator-activated receptor alpha (Canis lupus familiaris, UniProt Q95N78); test: Agonist activity at dog PPARalpha; format: functional; details: read-out: EC50
T3 sequence (Q95N78 whole entry): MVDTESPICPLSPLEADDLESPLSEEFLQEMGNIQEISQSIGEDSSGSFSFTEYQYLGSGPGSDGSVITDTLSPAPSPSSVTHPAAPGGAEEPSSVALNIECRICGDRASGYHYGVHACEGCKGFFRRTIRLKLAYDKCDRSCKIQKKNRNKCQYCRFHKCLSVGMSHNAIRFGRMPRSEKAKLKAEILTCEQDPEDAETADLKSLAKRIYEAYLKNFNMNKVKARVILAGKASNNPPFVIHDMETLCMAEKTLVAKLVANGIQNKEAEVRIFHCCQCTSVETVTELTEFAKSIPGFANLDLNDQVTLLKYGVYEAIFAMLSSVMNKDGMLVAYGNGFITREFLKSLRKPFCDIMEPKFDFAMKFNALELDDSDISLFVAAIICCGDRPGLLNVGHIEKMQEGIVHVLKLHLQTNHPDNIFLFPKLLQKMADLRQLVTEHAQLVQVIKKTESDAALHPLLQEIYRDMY

## CC[C@@H](Oc1cccc(-n2c(C)c(C(=O)c3ccc(OC)cc3)c3ccc(OC(F)(F)F)cc32)c1)C(=O)O [MK-0533]
[1]
  pIC50: 8.05
[2]
  clearance: 10.1 mL/min/kg
[3]
  AUC at 168 h: 4520 µM·h
[4]
  pEC50: 8.70
[5]
  Cmax: 500 nM
[6]
  Cmax: 1000 nM
[7]
  bioavailability: 81%
[8]
  AUC at 168 h: 115 µM·h
[9]
  AUC at 168 h: 6 µM·h
[10]
  AUC at 336 h: 954 µM·h
[11]
  AUC at 264 h: 60 µM·h
[12]
  bioavailability: 59%
[13]
  Activity: Non-toxic
[14]
  Activity: 48.1 µg/mL
[15]
  PB: < 10 pmol
[16]
  Cmax: 2400 nM
[17]
  half-life: 1.6 h
[18]
  Activity: Non-toxic
[19]
  PB: < 10 pmol
[20]
  Activity: 537 mg
[21]
  Activity: 52%
[22]
  Vd: 0.7 L/kg
[23]
  AUC at 168 h: 1480 µM·h
[24]
  pEC50: 6.62
[25]
  half-life: 3.2 h
[26]
  pEC50: 6.43
